Patent US10912743B2, “Compositions for treating inflammation and methods of treating the same” (Novan, Inc., priority 2016, dated 2021)
Marks after values point to notes of the source that are not given here.

Experiments:
[1] = test system: oxazolone-induced ear swelling; assay: Oxazolone-induced ear swelling assay in BALB/c mice; format: in vivo
Method: Groups of 5 BALB/c male mice weighing 22±2 g were used. The animals were sensitized by application of oxazolone (100 μL, 1.5% in acetone) to their preshaved abdominal surface. Seven days later, test substances (20 mg/ear) and vehicle (20 μL/ear) were applied topically to the anterior and posterior surfaces of the right ear 30 min before and 15 min after oxazolone (1%, 20 μL/ear) challenge. Ear swelling was measured with a Dyer model micrometer gauge at 24 hours after oxazolone challenge as an index of inflammation. Ear edema was calculated by subtracting the thickness of the left ear (normal control) from the right ear (treated ear). Percent inhibition was calculated according to the formula: (Ic −It)/Ic×100, where Ic and It refers to increase of ear thickness (mm) in control and treated mice, respectively. One-way ANOVA and Dunnett's test were used to determine statistical significance between vehicle control and treated groups. Significance is set at P<0.05.
Test substances and vehicles were each administered topically (TOP) at 30 minutes before and 15 minutes after challenge with the second application of oxazolone.
The test system used was a 7-day oxazolone-induced ear swelling assay. […] Ear swelling was measured with a Dyer model micrometer gauge at 24 hours after oxazolone challenge as an index of inflammation. Ear edema was calculated by subtracting the thickness of the left ear (normal control) from the right ear (treated ear) (Table 9). […] Percent inhibition was calculated according to the formula: (Ic−It)/Ic×100, where Ic and It refer to increase of ear thickness (mm) in control and treated mice, respectively. […]
BALB/c mice are sensitized with oxazolone exposure to the abdomen and are subsequently challenged (7 days post-sensitization) with oxazolone application to the right ear. […] The effect of anti-inflammatory test articles is then assessed by measuring the amount of ear swelling, which is reported as a percentage in comparison to the study vehicle. […]

[2] = test system: Th17/IL-17 pathway; details: skin biopsies stimulated with cytokine cocktail 48 hrs; cited from earlier work

| SMILES | Ear Swelling % Inhibition (vs. Vehicle A) ([1]; Example 2 study, TOP x 2 (30 min before, 15 min after oxazolone challenge), 24 hours, vs acetone/ethanol 1/1) | % inhibition of oxazolone-induced ear swelling vs ethanol/acetone ([1]; Example 4 study, TOP x 2, 24 hours) | Net Swelling on Right Ear (Mean ± SEM, ×0.01 mm) ([1]; Example 4 study, TOP x 2, 24 hours after oxazolone challenge) | IL-17 secretion [2] |
| --- | --- | --- | --- | --- |
| C[C@@H]1C[C@H]2[C@@H]3CCC4=CC(=O)C=C[C@]4(C)[C@@]3(F)[C@@H](O)C[C@]2(C)[C@@]1(O)C(=O)CO [Dexamethasone] | 85* % | 86% | 3.2 ± 0.4 ×0.01 mm | – |
| C=C1/C(=C\C=C2/CCC[C@]3(C)[C@@H]([C@H](C)/C=C/[C@@H](O)C4CC4)CC[C@@H]23)C[C@@H](O)C[C@@H]1O [calcipotriol] | – | – | – | partial inhibition of IL-17 secretion |
